Experimental data: patent US20150190461A1, “DOSING INSTRUCTIONS FOR ENDOTOXIN-BINDING LIPOPEPTIDES” (priority 2012, published 2015)

Tests used:
[1] = human, in vivo; cited from earlier work
blood cells = experiment: Cytokine batch (batch test II): cytokine release by blood cells in LPS-spiked plasma; type: cell-based; settings: PMB 250, 500, 1000 ng/ml; plasma spiked with LPS (E. coli); 4 hours of incubation
Experimental: Also to be studied is to what extent this endotoxin elimination has the consequence of inhibiting the release of cytokines (batch test II).
A blood donation was taken in 9 blood-donation tubes (9 ml each) and spiked with 5 IU heparin. The plasma was centrifuges, and the cell pellet as incubated on the rolling mixer. The plasma was spiked with LPS and used for batch test I: […]

For colistin, the serum half-life [1] is given as 6 to 7.4 h.
In the case of polymyxin B [PMB], the “inhibition of cytokine release (TNF-alpha, IL-1beta, IL-6, IL-8) by the blood cells” value (blood cells) is reported as “strong inhibition” and the “inhibition of the key mediator TNF-alpha” value (blood cells) is reported as “especially pronounced”.
